Structures can show the parent of a compound that is named as a salt.
Target: T1, Recombinant human renin (Homo sapiens, UniProt P00797)
T1 sequence (P00797 67-406): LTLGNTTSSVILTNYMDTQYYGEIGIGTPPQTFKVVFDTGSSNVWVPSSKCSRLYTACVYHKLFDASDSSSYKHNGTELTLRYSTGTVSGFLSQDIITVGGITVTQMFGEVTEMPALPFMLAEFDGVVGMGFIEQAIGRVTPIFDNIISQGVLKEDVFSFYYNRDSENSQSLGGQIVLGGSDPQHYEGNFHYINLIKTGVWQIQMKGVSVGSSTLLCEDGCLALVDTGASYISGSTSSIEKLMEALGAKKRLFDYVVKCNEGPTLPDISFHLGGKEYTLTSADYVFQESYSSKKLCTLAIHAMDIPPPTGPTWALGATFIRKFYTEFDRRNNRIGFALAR
Test: In vitro renin inhibitory activity assay (fluorescence, EDANS/DABCYL peptide substrate)
Assay type: biochemical
Conditions: recombinant human renin (50 ng), 0.1M HEPES buffer pH 7.4, substrate 4 μM, 37° C., one hour, fluorescence 340/500 nm
Experimental: In Vitro Renin Inhibitory Activity Assay
Recombinant human renin (50 ng) was reacted in 0.1M HEPES buffer (pH 7.4) containing 0.1M NaCl, 1 mM EDTA and 0.1 mg/mL BSA together with a substrate and a test compound at 37° C. for one hour. As the substrate, Arg-Glu(EDANS)-[…]DABCYL)-Arg or DABCYL-γ-Abu-[…]EDANS was added in such an amount so that the final concentration thereof became 4 μM. The elevated fluorescence intensity at the exciting wavelength 340 nm and the fluorescence wavelength 500 nm was measured by a fluorescence plate reader.

Structure (SMILES) | IC50
COCCCN1C(=O)[C@@H](C)Oc2cc(C)c(C(=O)N(C(C)C)[C@@H]3CCCNC3)cc21 [Example 18] | 11 nM
COCCCCN1C(=O)C2(CCOCC2)Oc2cc(C)c(C(=O)N(C(C)C)[C@@H]3CCCNC3)cc21 [Example 48] | 8.4 nM
CCc1cc2c(cc1C(=O)N(C(C)C)[C@@H]1CCCNC1)N(CCCCOC)C(=O)C(C)(C)O2 [Example 79] | 19.2 nM
CCc1cc2c(cc1C(=O)N(C(C)C)[C@@H]1CCCNC1)N(CCNC(=O)OC)C(=O)C(C)(C)O2 [Example 80] | 4.6 nM
COCCCCN1C(=O)C(C)(C)Oc2cc(C#N)c(C(=O)N(C(C)C)[C@@H]3CCCNC3)cc21 [Example 162] | 4 nM
COCCCCN1C(=O)C(C)(C)Oc2cc(C(F)(F)F)c(C(=O)N(C(C)C)C3CCNC3)cc21 (centres unmarked) [Example 201, N-Isopropyl-4-(4-methoxybutyl)-2,2-dimethyl-3-oxo-N-pyrrolidine-3-yl-7-(trifluoromethyl)-3,4-dihydro-2H-1,4-benzoxazine-6-carboxamide hydrochloride] | 82 nM
COCCCCN1C(=O)C(C2CCOCC2)Oc2cc(C(F)(F)F)c(C(=O)N(C(C)C)C3CCCNC3)cc21 (centres unmarked) [Example 205] | 17.4 nM
COC(=O)NCCN1C(=O)C(C)(COc2ccccc2)Oc2cc(C(F)(F)F)c(C(=O)N(C(C)C)C3CCCNC3)cc21 (centres unmarked) [Example 209] | 2 nM
COCCCCN1C(=O)C(C)(COCCOC)Oc2cc(C(F)(F)F)c(C(=O)N(C(C)C)C3CCCNC3)cc21 (centres unmarked) [Example 212] | 1.7 nM
COCCCCN1C(=O)C(C)(CO)Oc2cc(C(F)(F)F)c(C(=O)N(C(C)C)C3CCCNC3)cc21 (centres unmarked) [Example 217] | 1.8 nM
CCC(=O)NCCN1C(=O)C(C)(C)Oc2cc(C(F)(F)F)c(C(=O)N(C(C)C)C3CNCCC3c3cccc(-c4ccccc4)c3)cc21 (centres unmarked) [Example 238] | 39 nM
CCC(=O)NCCN1C(=O)C(C)(C)Oc2cc(C(F)(F)F)c(C(=O)N(CC)C3CNCCC3c3ccccc3)cc21 (centres unmarked) [Example 243] | 2.2 nM
COCC(O)CCN1C(=O)C(C)(C)Oc2cc(C(F)(F)F)c(C(=O)N(C(C)C)C3CCCNC3)cc21 (centres unmarked) [Example 251] | 23.8 nM
COCCCCN1C(=O)C(C)(C)c2cc(Cl)c(C(=O)N(C(C)C)[C@@H]3CCCNC3)cc21 [Example 254, 5-Chloro-3,3-dimethyl-N-isopropyl-1-(4-methoxybutyl)-2-oxo-N-[(3R)-piperidin-3-yl] indoline-6-carboxamide hydrochloride] | 14 nM
CCC(=O)NCCN1C(=O)C(C)(C)c2cc(Cl)c(C(=O)N(C(C)C)[C@@H]3CCCNC3)cc21 [Example 255, 5-Chloro-N-isopropyl-3,3-dimethyl-2-oxo-N-[(3R)-piperidin-3-yl]-1-[2-(propionylamino)ethyl]-indoline-6-carboxamide hydrochloride] | 20 nM
CCn1c(=O)n(CCCCOC)c2cc(C(=O)N(C(C)C)[C@@H]3CCCNC3)c(C(F)(F)F)cc21 [Example 261] | 15 nM
CCC(=O)NCCn1c(=O)n(CC)c2cc(C(F)(F)F)c(C(=O)N(C(C)C)[C@@H]3CCCNC3)cc21 [Example 262] | 30 nM
CCC(=O)NCCN1C(=O)C(C)(C)Oc2cc(F)c(C(=O)N(CC)[C@H]3CNCC[C@@H]3c3cccc(OC)c3)cc21 [Example 265] | 2.2 nM

The next molecules have a lower IC50 than those just listed; values first:

IC50 | Structure (SMILES)
0.7 nM | COCCCN1C(=O)C(C)(C)Oc2cc(Br)c(C(=O)N(C(C)C)[C@@H]3CCCNC3)cc21 [Example 1, 7-Bromo-N-isopropyl-4-(3-methoxypropyl)-2,2-dimethyl-3-oxo-N-[(3R)-piperidin-3-yl]-3,4-dihydro-2H-1,4-benzoxazine-6-carboxamide hydrochloride]
0.8 nM | COC(=O)NCCN1C(=O)[C@](C)(c2cc(F)cc(F)c2)Oc2cc(Cl)c(C(=O)N(C(C)C)[C@@H]3CCCNC3)cc21 [Example 30]
0.2 nM | COC(=O)NCCN1C(=O)[C@](C)(c2cc(F)cc(F)c2)Oc2cc(Br)c(C(=O)N(C(C)C)[C@@H]3CCCNC3)cc21 [Example 36]
0.7 nM | COCCCCN1C(=O)[C@@H](C)Oc2cc(C(F)(F)F)c(C(=O)N(C(C)C)[C@@H]3CCCNC3)cc21 [Example 66]
1.3 nM | CCC(=O)NCCN1C(=O)C(C)(C)Oc2cc(C(F)(F)F)c(C(=O)N(C3CCC3)[C@@H]3CCCNC3)cc21 [Example 202]
1.2 nM | COC(=O)NCCN1C(=O)C(C)(COc2cccc(OC)c2)Oc2cc(C(F)(F)F)c(C(=O)N(C(C)C)C3CCCNC3)cc21 (centres unmarked) [Example 210]
1.1 nM | CCOC(=O)COCC1(C)Oc2cc(C(F)(F)F)c(C(=O)N(C(C)C)C3CCCNC3)cc2N(CCCCOC)C1=O (centres unmarked) [Example 216]
0.6 nM | CCC(=O)NCCN1C(=O)C(C)(c2cccc(C#N)c2)Oc2cc(C(F)(F)F)c(C(=O)N(C(C)C)C3CCCNC3)cc21 (centres unmarked) [Example 224]
1.5 nM | CCC(=O)NCCN1C(=O)C(C)(c2cc(C#N)ccc2F)Oc2cc(C(F)(F)F)c(C(=O)N(C(C)C)C3CCCNC3)cc21 (centres unmarked) [Example 228]
0.3 nM | CCC(=O)NCCN1C(=O)C(C)(c2cccc(OS(C)(=O)=O)c2)Oc2cc(C(F)(F)F)c(C(=O)N(C(C)C)C3CCCNC3)cc21 (centres unmarked) [Example 229]
1.5 nM | COCC(=O)CCN1C(=O)C(C)(C)Oc2cc(C(F)(F)F)c(C(=O)N(C(C)C)C3CCCNC3)cc21 (centres unmarked) [Example 252]

From patent US8389511B2, “Bicyclic heterocyclic derivative” (Dainippon Sumitomo Pharma Co., Ltd., priority 2007, dated 2013)
